Test results as given in US9034403B2, “Yeast extract containing γ-Glu-X or γ-Glu-X-Gly and a method for producing the same” (AJINOMOTO CO., INC., priority 2010, dated 2015).
Numbered stars: 1 amine (or outer) side, 2 acyl side, 3 side chain; on linkers, the order of the positions; unused ones are H or OH. Square brackets hold non-standard residues; d marks the D form. Peptide text beside a SMILES is read from it. γGlu = O=C(O)[C@H](CCC(=O)[*:2])N[*:1]; Nva = CCC[C@H](N)C(=O)O

Assays:
[1] = system: GSH1 overexpressing strain AG1; experiment: Addition of nVal to GSH1 overexpressing strain AG1, γ-Glu-nVal content; type: cell-based, Saccharomyces cerevisiae; details: for γ-Glu-nVal content: culture continued 1 hour
Experimental: Then, this AG1 strain was cultivated in SD medium supplemented with nVal. More specifically, one loop of the AG1 strain was inoculated into SD medium (50 ml in a 500 ml-volume Sakaguchi flask), and cultured at 30° C. for 24 hours with shaking at a velocity of 120 rpm. Absorbance of the obtained culture broth was measured, and the culture broth was inoculated into SDP medium (400 ml in a 2 L-volume conical flask with baffle fins, two or more flasks) so that OD660 was 0.01 at the start of the culture, and culture was performed at 30° C. for 23 hours with shaking by rotation at a velocity of 120 rpm. After 23 hours, nVal solution was added to a final concentration of 10 ppm or 100 ppm, and the cultures were continued for 1 hour. Then, the amount of γ-Glu-nVal was measured in the same manner described in the experimental example 15. The γ-Glu-nVal content was 0.07% when 10 ppm of nVal was added to the medium and the γ-Glu-nVal content was 0.37% when 100 ppm of nVal was added to the medium. Then, yeast extract containing γ-Glu-nVal was prepared from the broth culture cultivated with 100 ppm nVal basically in the same manner as described in Example 16. This yeast extract contained 1.44% γ-Glu-nVal at the dry matter base. This yeast extract would give strong kokumi for initial and middle taste from its character.

[2] = system: S288C, Y3560 and YEp24-PTDH3-GSH2 strains; experiment: Influence of YEp24-PTDH3-GSH2 on γ-EV to γ-EVG conversion; type: cell-based, Saccharomyces cerevisiae; details: 18 hours
Experimental: Each of the S288C ura3Δ227/YEp24-PTDH3-GSH2, Y3560/YEp24-PTDH3-GSH2, S288C and Y3560 strains, was cultivated in 50-ml tubes containing 10 ml of SD medium with 100 ppm γ-Glu-Val as a final concentration. For Y3560 strain medium was also supplemented with uracil (20 mg/L). Tubes were inoculated by overnight culture of corresponding strain at initial OD600=0.01, and placed in rotation shaker at 240 rpm, 30° C. for 18 hours. Then cells from 2 ml of broth culture were harvested by centrifugation, and were washed by 1 ml of milliQ water three times. Then washed cells were suspended in 1 ml of milliQ and were incubated at 70° C. for 10 min with a water bath to extract intracellular materials. After cell debris and the extract were separated by centrifugation, aqueous phase was transferred to clean vial and then the vial was vacuum-dried. Thus the dried extract was prepared. Then γ-Glu-Val-Gly in the dried extract was measured with LC-MS/MS analysis as it is described in example 12.

[3] = system: GSH2 overexpressing strain PG2 and WT strain; experiment: Addition of γ-Glu-Val to GSH2 overexpressing strain PG2 and WT strain, γ-Glu-Val-Gly content; type: cell-based, Saccharomyces cerevisiae
Experimental: GSH2 overexpressing strain PG2 was constructed basically in the same manner as described in Example 10 except that AJ14956 described in Example 19 was used instead of ura3Δ0 from S288C. As a control, WT strain was obtained by returning the deleted URA3 gene into wild type gene from AJ14956 in the same manner described in Example 10 and Example 19.
One loop of the WT strain or PG2 strain was inoculated into SD medium (50 ml in a 500 ml-volume Sakaguchi flask), and cultured at 30° C. for 24 hours with shaking at a velocity of 120 rpm. Absorbance of the obtained culture broth was measured, and the culture broth was inoculated into the SD medium supplemented with various concentrations of γ-Glu-Val (400 ml in a 2 L-volume conical flask with baffle fins, two or more flasks) so that OD660 was 0.01 at the start of the culture, and culture was performed at 30° C. with shaking by rotation at a velocity of 120 rpm until OD660 reached to the predetermined value. Then, the amount of γ-Glu-Val-Gly in dry cells and the solid content of the extracted extract were calculated in the same manner described previously. As shown in the results, PG2, a GSH2 overexpressing strain, took up γ-Glu-Val from the medium and converted it into γ-Glu-Val-Gly in the cell.

[4] = system: Saccharomyces cerevisiae S288C strain; experiment: Addition of peptide to medium of S288C strain; peptide content in dry cells and in extract by LC-MS/MS; type: cell-based
Experimental: Absorbance of the obtained culture broth was measured, the culture broth was inoculated into SD medium (400 ml in a 2 L-volume conical flask with baffle fins, a pluratity of flasks) so that OD660 was 0.01 at the start of the culture (absorbance was measured by using DU640 SPECTROPHTOMETER, BECKMAN COULTER), and culture was performed at 30° C. for 19 hours with shaking by rotation at a velocity of 120 rpm. From the obtained culture broth, 400 OD units of the cells (1 OD unit is defined as cells contained in 1 ml of culture broth of which OD660 is 1) were collected by centrifugal separation. The supernatant was removed as much as possible, and the residual cells were suspended in 45 ml of Milli-Q water. The cells were collected again by centrifugal separation, and resuspended in 45 ml of Milli-Q water. By repeating this operation 3 times in total, the medium was completely removed from the cells. The washed cells were suspended in about 1.5 ml of Milli-Q water, and the suspension was heated at 70° C. for 10 minutes. By this step, the extractable components contained in the cells were extracted. Then, the extract and the cell residue were separated by centrifugation.
Cell debris were removed from the extract using a centrifugal filtration membrane of 10 kDa (Amicon Ultra—0.5 mL 10K, MILLIPORE, Catalogue Number UFC501096)), the obtained fraction was derivatized with the AQC reagent in the same manner as that used in Example 1, and γ-Glu-Val-Gly and γ-Glu-Val were measured by LC-MS/MS. Separately, the amount of GSH in the cells was measured in a conventional manner (GSH in the extract was derivatized by using a fluorescence reagent ABD-F that binds to thiol group, separated and quantified by HPLC). Furthermore, dry cell weight was measured after the washed cells were dried at 104° C. for 4 hours. From the amounts of γ-Glu-Val-Gly and γ-Glu-Val in the extract prepared from the cells that was contained in a certain volume of culture broth and dry cell weight measured as described above, the amount of these peptides based on weight of dried cells was calculated. […]
One loop of the S288C strain was inoculated into SD medium (50 ml in a 500 ml-volume Sakaguchi flask), and cultured at 30° C. for 24 hours with shaking at a velocity of 120 rpm. Absorbance of the obtained culture broth was measured, the culture broth was inoculated into SD medium (400 ml in a 2 L-volume conical flask with baffle fins, two or more flasks) so that OD660 was 0.01 at the start of the culture, and culture was performed at 30° C. for 19 hours with shaking by rotation at a velocity of 120 rpm. After 19 hours, γ-Glu-Val-Gly aqueous solutions of various concentrations were added to obtain predetermined concentrations, and the culture was continued for 1 hour. Using these culture broths, the γ-Glu-Val-Gly content in dry cells was calculated in the same manner as in Example 2. Furthermore, the solid content of the extract was calculated, and the amount of γ-Glu-Val-Gly in the solid content was also calculated. […]
The cells were collected from the total culture broth, and washed in the same manner as that of Example 2. The washed cells in an amount of 400 OD units were suspended in 1.5 ml of Milli-Q water. This suspension was maintained at 70° C. for 10 minutes to produce an extract from the yeast cells. Furthermore, the suspension was centrifuged to remove the cell residues and thereby collect only the extract. The γ-Glu-Val-Gly concentration of this extract (extract of addition experiment) was measured to be about 300 ppm, and solid content was about 1%. The γ-Glu-Val-Gly concentration in an extract prepared in the same way but without adding γ-Glu-Val-Gly to the culture broth (extract of no addition experiment) was below the quantitation limit, and solid content was about 1%.
One loop of the S288C strain was inoculated into SD medium (50 ml in a 500 ml-volume Sakaguchi flask), and cultured at 30° C. for 24 hours with shaking at a velocity of 120 rpm. […]

[5] = system: S288C PADH1-HGT1 (Hgt1p overproducing strain) and S288C; experiment: Peptide uptake of Hgt1p overproducing strain and parental strain S288C, intracellular content on dry weight cell; type: cell-based, Saccharomyces cerevisiae; details: S288C PADH1-HGT1; γ-Glu-nVal-Gly 100 ppm added to the medium
Experimental: One loop of the S288C strain was inoculated into SD medium (50 ml in a 500 ml-volume Sakaguchi flask), and cultured at 30° C. for 24 hours with shaking at a velocity of 120 rpm. Absorbance of the obtained culture broth was measured, the culture broth was inoculated into SD medium (400 ml in a 2 L-volume conical flask with baffle fins, two or more flasks) so that OD660 was 0.01 at the start of the culture, and culture was performed at 30° C. for 19 hours with shaking by rotation at a velocity of 120 rpm. After 19 hours, γ-Glu-Val-Gly aqueous solutions of various concentrations were added to obtain predetermined concentrations, and the culture was continued for 1 hour. Using these culture broths, the γ-Glu-Val-Gly content in dry cells was calculated in the same manner as in Example 2. Furthermore, the solid content of the extract was calculated, and the amount of γ-Glu-Val-Gly in the solid content was also calculated.
The S288C PADH1-HGT1, Hgt1p overproducing strain obtained in Example 12, and its parental strain S288C, were evaluated for their ability to take up γ-Glu-Val-Gly in the same manners as described in Example 4. The amount of γ-Glu-Val-Gly added into the medium was 100 ppm as a final concentration. As a result, intracellular content of γ-Glu-Val-Gly in S288C on the dry weight cell was about 0.9%, but intracellular content of γ-Glu-Val-Gly in S288C PADH1-HGT1 on the dry weight cell was about 4.9%.
S288C PADH1-HGT1, Hgt1p overproducing strain obtained in Example 12, and its parental strain S288C were evaluated for their γ-Glu-nVal-Gly uptake abilities in the same manners as described in Example 4 and Example 13. The amount of γ-Glu-nVal-Gly added to the medium was 100 ppm as a final concentration.

[6] = PG2 strain, γ-Glu-Val in the medium 100 ppm, CT 21 hr
[7] = PG2 strain, γ-Glu-Val in the medium 500 ppm, CT 21 hr
[8] = WT strain, γ-Glu-Val in the medium 100 ppm, CT 19 hr
[9] = WT strain, γ-Glu-Val in the medium 500 ppm, CT 19 hr
[10] = 25 ppm γ-Glu-Val added to medium after 19 hours, culture continued 1 hour
[11] = 100 ppm γ-Glu-Val added to medium after 19 hours, culture continued 1 hour
[12] = 200 ppm γ-Glu-Val added to medium after 19 hours, culture continued 1 hour
[13] = γ-Glu-Val 100 ppm added to SD medium in advance, culture 24 hours

Structure (SMILES): CCC[C@H](N)C(=O)O [nVal, norvaline]
- γ-Glu-nVal content ([1]; 10 ppm of nVal added after 23 hours): 0.07%
- γ-Glu-nVal content ([1]; 100 ppm of nVal added after 23 hours): 0.37%
- γ-Glu-nVal in yeast extract at the dry matter base ([1]; yeast extract from broth culture cultivated with 100 ppm nVal): 1.44%

Structure (SMILES): CC(C)[C@H](NC(=O)CC[C@H](N)C(=O)O)C(=O)O [γ-Glu-Val]
- γ-EVG ([2]; strain S288C ura3Δ227/YEp24-PTDH3-GSH2, 100 ppm γ-Glu-Val in SD medium): 705 μg 1^−1 OD600^−1
- γ-EVG ([2]; strain S288C, 100 ppm γ-Glu-Val in SD medium): 6 μg 1^−1 OD600^−1
- γ-EVG ([2]; strain Y3560/YEp24-PTDH3-GSH2, 100 ppm γ-Glu-Val in SD medium): 2039 μg 1^−1 OD600^−1
- γ-EVG ([2]; strain Y3560, 100 ppm γ-Glu-Val in SD medium with uracil): 110 μg 1^−1 OD600^−1
- γ-Glu-Val-Gly content in dry cells [3, 6]: 81 ppm
- γ-Glu-Val-Gly content in solid content of extract [3, 6]: 384 ppm
- γ-Glu-Val-Gly content in dry cells [3, 7]: 123 ppm
- γ-Glu-Val-Gly content in solid content of extract [3, 7]: 585 ppm
- γ-Glu-Val-Gly content in dry cells [3, 8]: 7 ppm
- γ-Glu-Val-Gly content in solid content of extract [3, 8]: 29 ppm
- γ-Glu-Val-Gly content in dry cells [3, 9]: 7 ppm
- γ-Glu-Val-Gly content in solid content of extract [3, 9]: 29 ppm
- γ-Glu-Val content in dry cells [4, 10]: 1468 ppm
- γ-Glu-Val content in solid content of extract [4, 10]: 8491 ppm
- γ-Glu-Val content in dry cells [4, 11]: 6369 ppm
- γ-Glu-Val content in solid content of extract [4, 11]: 27599 ppm
- γ-Glu-Val content in dry cells [4, 12]: 10930 ppm
- γ-Glu-Val content in solid content of extract [4, 12]: 49474 ppm
- γ-Glu-Val present in dry cells [4, 13]: 7171 ppm
- γ-Glu-Val-Gly present in dry cells [4, 13]: 20 ppm

Structure (SMILES): CCC[C@H](NC(=O)CC[C@H](N)C(=O)O)C(=O)NCC(=O)O [γ-Glu-nVal-Gly] (γGlu-[Nva]-Gly-OH)
- intracellular content of γ-Glu-nVal-Gly on the dry weight cell [5]: about 2.84%
- γ-Glu-nVal-Gly concentration of extract ([4]; 50 ppm γ-Glu-nVal-Gly added after 19 hours, culture continued 1 hour, 400 OD units in 1.5 ml, solid content about 1%): about 100 ppm
- γ-Glu-nVal-Gly content in the dry cell ([4]; γ-Glu-nVal-Gly added into the medium at 10 ppm): about 0.07%
- γ-Glu-nVal-Gly content in the dry cell ([4]; γ-Glu-nVal-Gly added into the medium at 100 ppm): about 0.09%

Structure (SMILES): CCC[C@H](NC(=O)CC[C@H](N)C(=O)O)C(=O)O [γ-Glu-nVal]
- γ-Glu-nVal content in the dry cell ([4]; γ-Glu-nVal added into the medium at 10 ppm): about 0.03%
- γ-Glu-nVal content in the dry cell ([4]; γ-Glu-nVal added into the medium at 100 ppm): about 0.13%
